Experimental data: PubChem BioAssay AID1259407 (Chemical Carcinogenesis Research Information System (CCRIS), 2018)
The source made the active and inactive calls. The rule behind the calls is not given here.

System: CCRIS mutagenicity, Ames/micronucleus/aberration tests
Assay: CCRIS mutagenicity studies
[1] = Test System: AMES SALMONELLA TYPHIMURIUM, Strain/Indicator: TA98, Metabolic Activation: NONE, Method: STANDARD PLATE
[2] = Test System: AMES SALMONELLA TYPHIMURIUM, Strain/Indicator: TA97, Metabolic Activation: NONE, Method: STANDARD PLATE
[3] = Test System: AMES SALMONELLA TYPHIMURIUM, Strain/Indicator: TA100, Metabolic Activation: NONE, Method: STANDARD PLATE
[4] = Test System: AMES SALMONELLA TYPHIMURIUM, Strain/Indicator: TA102, Metabolic Activation: NONE, Method: STANDARD PLATE
[5] = Test System: AMES SALMONELLA TYPHIMURIUM, Strain/Indicator: TA98, Metabolic Activation: NONE, Method: PREINCUBATION
[6] = Test System: AMES SALMONELLA TYPHIMURIUM, Strain/Indicator: TA98, Metabolic Activation: RAT, LIVER, S-9, AROCLOR 1254, Method: STANDARD PLATE
[7] = Test System: AMES SALMONELLA TYPHIMURIUM, Strain/Indicator: TA1538, Metabolic Activation: NONE, Method: STANDARD PLATE

## O=c1c2ccccc2[nH]c2occc12
[1]
  mutagenic call: inactive; negative
Test System: AMES SALMONELLA TYPHIMURIUM, Strain/Indicator: TA98, Metabolic Activation: RAT LIVER S-9, PHENOBARTITAL, Method: STANDARD PLATE
  mutagenic call: inactive; negative

## O=C([O-])c1cccnc1Nc1cccc(C(F)(F)F)c1.O=C([O-])c1cccnc1Nc1cccc(C(F)(F)F)c1.OCc1cccnc1.OCc1cccnc1.[Cu+2]
Test System: AMES SALMONELLA TYPHIMURIUM, Strain/Indicator: TA97, Metabolic Activation: MOUSE, LIVER, S-9, Method: STANDARD PLATE
  mutagenic call: inactive; negative
[2]
  mutagenic call: inactive; negative
Test System: AMES SALMONELLA TYPHIMURIUM, Strain/Indicator: TA97, Metabolic Activation: RAT LIVER S-9, DELOR 103, Method: STANDARD PLATE
  mutagenic call: inactive; negative
Test System: AMES SALMONELLA TYPHIMURIUM, Strain/Indicator: TA98, Metabolic Activation: MOUSE, LIVER, S-9, Method: STANDARD PLATE
  mutagenic call: inactive; negative
[1]
  mutagenic call: inactive; negative
Test System: AMES SALMONELLA TYPHIMURIUM, Strain/Indicator: TA98, Metabolic Activation: RAT LIVER S-9, DELOR 103, Method: STANDARD PLATE
  mutagenic call: inactive; negative
Test System: AMES SALMONELLA TYPHIMURIUM, Strain/Indicator: TA100, Metabolic Activation: MOUSE, LIVER, S-9, Method: STANDARD PLATE
  mutagenic call: inactive; negative
[3]
  mutagenic call: inactive; negative
Test System: AMES SALMONELLA TYPHIMURIUM, Strain/Indicator: TA100, Metabolic Activation: RAT LIVER S-9, DELOR 103, Method: STANDARD PLATE
  mutagenic call: inactive; negative
Test System: AMES SALMONELLA TYPHIMURIUM, Strain/Indicator: TA102, Metabolic Activation: MOUSE, LIVER, S-9, Method: STANDARD PLATE
  mutagenic call: inactive; negative
[4]
  mutagenic call: inactive; negative
Test System: AMES SALMONELLA TYPHIMURIUM, Strain/Indicator: TA102, Metabolic Activation: RAT LIVER S-9, DELOR 103, Method: STANDARD PLATE
  mutagenic call: inactive; negative

## Cc1ccc(C)c([N+](=O)[O-])c1
[5]
  mutagenic call: inactive; negative
Test System: AMES SALMONELLA TYPHIMURIUM, Strain/Indicator: TA98, Metabolic Activation: RAT, LIVER, S-9, KANECHLOR 500, Method: PREINCUBATION
  mutagenic call: inactive; negative
Test System: AMES SALMONELLA TYPHIMURIUM, Strain/Indicator: TA100, Metabolic Activation: NONE, Method: PREINCUBATION
  mutagenic call: inactive; negative
Test System: AMES SALMONELLA TYPHIMURIUM, Strain/Indicator: TA100, Metabolic Activation: RAT, LIVER, S-9, KANECHLOR 500, Method: PREINCUBATION
  mutagenic call: active; positive

## C1=CC2OC2c2ccc3c4c5c(cccc5cc3c21)C=C4 (stereo not drawn)
[1]
  mutagenic call: inactive; negative
Test System: AMES SALMONELLA TYPHIMURIUM, Strain/Indicator: TA98, Metabolic Activation: RAT, LIVER, S-9, AROCLOR 1254 (0.4, 0.8, 1.15 OR 1.5 MG/PLATE), Method: STANDARD PLATE
  mutagenic call: active; positive
[6]
  mutagenic call: active; positive

## CCN(CC)c1ccc(N=Nc2ccc(N=Nc3c(S(=O)(=O)O)cc4ccc(N)cc4c3O)c(OCCO)c2)cc1
[1]
  mutagenic call: inactive; negative
[6]
  mutagenic call: active; positive
[3]
  mutagenic call: inactive; negative
Test System: AMES SALMONELLA TYPHIMURIUM, Strain/Indicator: TA100, Metabolic Activation: RAT, LIVER, S-9, AROCLOR 1254, Method: STANDARD PLATE
  mutagenic call: inactive; negative
[7]
  mutagenic call: inactive; negative
Test System: AMES SALMONELLA TYPHIMURIUM, Strain/Indicator: TA1538, Metabolic Activation: RAT, LIVER, S-9, AROCLOR 1254, Method: STANDARD PLATE
  mutagenic call: active; positive

## CC(=O)N(O)c1ccc(Oc2ccc(Cl)cc2Cl)cc1
[3]
  mutagenic call: inactive; negative
Test System: AMES SALMONELLA TYPHIMURIUM, Strain/Indicator: TA100, Metabolic Activation: RAT, LIVER, S-9, KANECLOR 500, Method: STANDARD PLATE
  mutagenic call: active; positive

## Cc1cc(S(=O)(=O)O)c([N+](=O)[O-])cc1[N+](=O)[O-]
End Point: In vitro chromosomal aberrations, Test System: V79 Chinese hamster fibroblasts, Metabolic Activation: None
  mutagenic call: inactive; negative
Test System: Ames Salmonella typhimurium, Strain/Indicator: TA98, Metabolic Activation: None, Method: Standard plate
  mutagenic call: inactive; negative
Test System: Ames Salmonella typhimurium, Strain/Indicator: TA98, Metabolic Activation: Rat, Liver, S-9, Method: Standard plate
  mutagenic call: inactive; negative
Test System: Ames Salmonella typhimurium, Strain/Indicator: TA100, Metabolic Activation: None, Method: Standard plate
  mutagenic call: inactive; negative
Test System: Ames Salmonella typhimurium, Strain/Indicator: TA100, Metabolic Activation: Rat, Liver, S-9, Method: Standard plate
  mutagenic call: inactive; negative

## O=C(NO)c1ccc(O)c(O)c1
[2]
  mutagenic call: inactive; negative
Test System: AMES SALMONELLA TYPHIMURIUM, Strain/Indicator: TA97, Metabolic Activation: RAT, LIVER, S-9, DELOR 103, Method: STANDARD PLATE
  mutagenic call: active; positive
[1]
  mutagenic call: inactive; negative
Test System: AMES SALMONELLA TYPHIMURIUM, Strain/Indicator: TA98, Metabolic Activation: RAT, LIVER, S-9, DELOR 103, Method: STANDARD PLATE
  mutagenic call: inactive; negative
[3]
  mutagenic call: inactive; negative
Test System: AMES SALMONELLA TYPHIMURIUM, Strain/Indicator: TA100, Metabolic Activation: RAT, LIVER, S-9, DELOR 103, Method: STANDARD PLATE
  mutagenic call: inactive; negative
[4]
  mutagenic call: inactive; negative
Test System: AMES SALMONELLA TYPHIMURIUM, Strain/Indicator: TA102, Metabolic Activation: RAT, LIVER, S-9, DELOR 103, Method: STANDARD PLATE
  mutagenic call: inactive; negative

## CCCCCC(C)[N+](=O)[O-] (stereo not drawn)
Test System: UDS RAT HEPATOCYTES, Strain/Indicator: THY INCORP, Metabolic Activation: NONE
  mutagenic call: active; positive

## OC(c1ccc(Cl)cc1)(c1cncnc1)c1ccccc1Cl (stereo not drawn)
End Point: In vitro chromosomal aberrations, Test System: Human lymphocytes, Metabolic Activation: None
  mutagenic call: inactive; negative
End Point: In vitro chromosomal aberrations, Test System: Human lymphocytes, Metabolic Activation: S-9
  mutagenic call: inactive; negative
End Point: In vivo micronucleus, Test System: Bone marrow polychromatic erythrocytes, Species: Mouse, Strain/Sex: Not specified/Male, Route: Oral
  mutagenic call: active; positive. statistically significant increase at 24 hr but no effects at 48 or 72
End Point: In vivo micronucleus, Test System: Bone marrow polychromatic erythrocytes, Species: Rat, Strain/Sex: Sprague-Dawley (Male and female), Route: Oral
  mutagenic call: inactive; negative
Test System: Ames Salmonella typhimurium, Strain/Indicator: TA98, Metabolic Activation: None, Method: Plate incorporation
  mutagenic call: inactive; negative
Test System: Ames Salmonella typhimurium, Strain/Indicator: TA98, Metabolic Activation: Rat, Liver, S-9, Method: Plate incorporation
  mutagenic call: inactive; negative
Test System: Ames Salmonella typhimurium, Strain/Indicator: TA100, Metabolic Activation: None, Method: Plate incorporation
  mutagenic call: inactive; negative
Test System: Ames Salmonella typhimurium, Strain/Indicator: TA100, Metabolic Activation: Rat, Liver, S-9, Method: Plate incorporation
  mutagenic call: inactive; negative
Test System: Ames Salmonella typhimurium, Strain/Indicator: TA1535, Metabolic Activation: None, Method: Plate incorporation
  mutagenic call: inactive; negative
Test System: Ames Salmonella typhimurium, Strain/Indicator: TA1535, Metabolic Activation: Rat, Liver, S-9, Method: Plate incorporation
  mutagenic call: inactive; negative
Test System: Ames Salmonella typhimurium, Strain/Indicator: TA1537, Metabolic Activation: None, Method: Plate incorporation
  mutagenic call: inactive; negative
Test System: Ames Salmonella typhimurium, Strain/Indicator: TA1537, Metabolic Activation: Rat, Liver, S-9, Method: Plate incorporation
  mutagenic call: inactive; negative
Test System: E. coli, Strain/Indicator: WP2uvrA-, Metabolic Activation: None, Method: Plate incorporation
  mutagenic call: inactive; negative
Test System: E. coli, Strain/Indicator: WP2uvrA-, Metabolic Activation: Rat, Liver, S-9, Method: Plate incorporation
  mutagenic call: inactive; negative

## C[C@@H]1O[C@@H](O[C@H]2C[C@](O)(C(=O)CO)Cc3c(O)c4c(c(O)c32)C(=O)c2ccccc2C4=O)C[C@H](N)[C@@H]1O
Test System: AMES SALMONELLA TYPHIMURIUM, Strain/Indicator: GW257, Metabolic Activation: NONE, Method: STANDARD PLATE
  mutagenic call: active; positive
[2]
  mutagenic call: inactive; negative
[5]
  mutagenic call: active; positive
[1]
  mutagenic call: active; positive
[3]
  mutagenic call: active; positive
Test System: AMES SALMONELLA TYPHIMURIUM, Strain/Indicator: TA104, Metabolic Activation: NONE, Method: STANDARD PLATE
  mutagenic call: inactive; negative
[7]
  mutagenic call: active; positive
Test System: AMES SALMONELLA TYPHIMURIUM, Strain/Indicator: TA2637, Metabolic Activation: NONE, Method: STANDARD PLATE
  mutagenic call: active; positive
Test System: CHINESE HAMSTER V-79, Strain/Indicator: V-79/6-THIOGUANINE, Metabolic Activation: NONE, Method: SUSPENSION/PLATE
  mutagenic call: active; positive
Test System: CHINESE HAMSTER V-79, Strain/Indicator: V-79/6-THIOGUANINE, Metabolic Activation: RAT, LIVER, HOMOGENATE, Method: SUSPENSION/PLATE
  mutagenic call: inactive; negative
Test System: UDS RAT HEPATOCYTES, Strain/Indicator: THY INCORP, Metabolic Activation: NONE, Method: AUTOMATIC COLONY COUNTER
  mutagenic call: active; positive
